Test results from patent publication US10434142B2, “Compositions and methods of improved wound healing” (Chan Soon-Shiong Nanthealth Foundation, priority 2013, dated 2019).
Entries after “also recorded” stand apart in the source; their conditions may differ.

Experiments:
TLR5 = assay: IL-8 production, calcium flux agonist plus TLR5 ligand (FIGS. 2A-2E); type: cell-based; details: suboptimal doses: 20 nM thapsigargin, 316 nM A23187, 1 μM ionomycin, 10 μM cyclopiazonic acid, 31.6 μM DBHQ
Description: (§1) To investigate if that observation was also true for other pattern recognition receptors, and especially for TLR and NOD receptors and other ligands, the inventors tested numerous TLR and NOD receptors and various ligands.
(§2) The doses used in this experiment were 20 nM for thapsigargin, 316 nM for A23187, 1 μM for ionomycin, 10 μM for cyclopiazonic acid, and 31.6 μM for DBHQ.
(§3) Thus, a clear pattern of adjuvant activity of calcium flux agonists on the immune response, and especially on IL-8 production and NF-κB signaling is evident where the immune response is associated with a TLR- or NOD-mediated event.

κB-LUC THP-1 cells = assay: Activation of κB-LUC THP-1 cells by S. aureus conditioned/spent media (FIGS. 3A-3C); type: cell-based, human; details: for recognition of S. aureus conditioned/spent media (activation of κB-LUC THP-1 cells): suboptimal doses: thapsigargin, 316 nM A23187, 1 μM ionomycin
NOD2 = assay: IL-8 production, calcium flux agonist plus NOD2 ligand (FIGS. 2A-2E); type: cell-based; details: suboptimal doses: 20 nM thapsigargin, 316 nM A23187, 1 μM ionomycin, 10 μM cyclopiazonic acid, 31.6 μM DBHQ
Description: as §1, §2, §3

TLR9 = assay: IL-8 production, calcium flux agonist plus TLR9 ligand (FIGS. 2A, 2B, 2E); type: cell-based; details: suboptimal doses: 20 nM thapsigargin, 316 nM A23187, 1 μM ionomycin
Description: as §1, §2, §3

[1] = test system: human THP-1 promonocytic leukemia cell line; assay: IL-8 production / cytokine release from THP-1 cells, TLR2 ligand with or without calcium flux agonist; type: cell-based; details: suboptimal dose of TLR2 ligand (Pam2CSK4 / Pam2CYS) plus suboptimal dose of agonist; beyond cumulative individual responses
Description: (§4) For example, human promonocytic THP-1 cells were incubated in the presence or absence of a suboptimal dose of the TLR2 ligand Pam2CSK4 and compared to similarly treated cells which also received suboptimal doses of ionophore (here: A23187 and ionomycin). […] In another example, KB-LUC THP-1 cells (a THP-1-derived transfectant line harboring an NF-κB-driven luciferase expression cassette) were cultivated in the presence or absence of a suboptimal dose of the TLR2 ligand Pam2CSK4 and compared to similarly treated cells that also received suboptimal doses of various SERCA inhibitors.
Here, the ionophores A23187 and ionomycin, as well as the SERCA inhibitor thapsigargin synergize with the TLR2 ligand (Pam2CYS) in the activation of cytokine release from the human THP-1 promonocytic leukemia cell line. It should be especially noted that while the TLR2 ligand alone provided for about 5 ng/ml IL-8 response, addition of a suboptimal dose of the calcium flux agonists (e.g. 20 nM for thapsigargin, 316 nM for A23187, and 1 μM for ionomycin) produced more than 10-fold quantities of IL-8 production in the cells.

TLR4 = assay: IL-8 production, calcium flux agonist plus TLR4 ligand (FIGS. 2A-2E); type: cell-based; details: suboptimal doses: 20 nM thapsigargin, 316 nM A23187, 1 μM ionomycin, 10 μM cyclopiazonic acid, 31.6 μM DBHQ
Description: as §1, §2, §3

NOD1 = assay: IL-8 production, calcium flux agonist plus NOD1 ligand (FIGS. 2A-2E); type: cell-based; details: suboptimal doses: 20 nM thapsigargin, 316 nM A23187, 1 μM ionomycin, 10 μM cyclopiazonic acid, 31.6 μM DBHQ
Description: as §1, §2, §3

TLR2 = assay: IL-8 production, calcium flux agonist plus TLR2 ligand (FIGS. 2A-2E); type: cell-based; details: suboptimal doses: 20 nM thapsigargin, 316 nM A23187, 1 μM ionomycin, 10 μM cyclopiazonic acid, 31.6 μM DBHQ
Description: as §1, §2, §3

KB-LUC THP-1 cells = assay: NF-κB-driven luciferase in KB-LUC THP-1 cells, TLR2 ligand Pam2CSK4 with or without SERCA inhibitor; type: cell-based, human; details: suboptimal dose of Pam2CSK4 plus suboptimal dose of SERCA inhibitor; beyond cumulative individual responses
Description: as §4

CNc1ccc2oc(C[C@H]3O[C@@]4(CC[C@H]3C)O[C@H]([C@H](C)C(=O)c3ccc[nH]3)[C@H](C)C[C@H]4C)nc2c1C(=O)O [A23187]
synergistic effect to augment cellular response (IL-8 production) for TLR5 (TLR5): synergistic effect | recognition of S. aureus conditioned/spent media (activation of κB-LUC THP-1 cells) (κB-LUC THP-1 cells): significantly enhanced | synergistic effect to augment cellular response (IL-8 production) for NOD2 (NOD2): synergistic effect | synergistic effect to augment cellular response (IL-8 production) for TLR9 (TLR9): synergistic effect | synergy with TLR2 ligand in IL-8 production / cytokine release [1]: significantly increased; also recorded: synergize | synergistic effect to augment cellular response (IL-8 production) for TLR4 (TLR4): synergistic effect | synergistic effect to augment cellular response (IL-8 production) for NOD1 (NOD1): synergistic effect | synergistic effect to augment cellular response (IL-8 production) for TLR2 (TLR2): synergistic effect

CC(C)(C)c1cc(O)c(C(C)(C)C)cc1O [DBHQ, 2,5-di(tert-butyl) hydroquinone]
synergistic effect to augment cellular response (IL-8 production) for TLR5 (TLR5): synergistic effect | synergistic effect to augment cellular response (IL-8 production) for NOD2 (NOD2): synergistic effect | synergistic effect to augment cellular response (IL-8 production) for TLR4 (TLR4): synergistic effect | synergistic effect to augment cellular response (IL-8 production) for NOD1 (NOD1): synergistic effect | synergistic effect to augment cellular response (IL-8 production) for TLR2 (TLR2): synergistic effect

O=C(O)CN(CCOCCOCCN(CC(=O)O)CC(=O)O)CC(=O)O [EGTA]
effect on calcium flux-induced synergy (κB-LUC THP-1 cells; extracellular chelator added at 1 mM): inhibited

C[C@H](CCC(=O)O)C[C@H](C)C[C@H](C)C(=O)/C=C(\O)[C@H](C)C[C@H](C)C/C=C/[C@@H](C)[C@@H](O)[C@@H](C)[C@@H](O)C[C@@H]1CC[C@@](C)([C@H]2CC[C@@](C)([C@@H](C)O)O2)O1 [ionomycin]
synergistic effect to augment cellular response (IL-8 production) for TLR5 (TLR5): synergistic effect | recognition of S. aureus conditioned/spent media (activation of κB-LUC THP-1 cells) (κB-LUC THP-1 cells): significantly enhanced | synergistic effect to augment cellular response (IL-8 production) for NOD2 (NOD2): synergistic effect | synergistic effect to augment cellular response (IL-8 production) for TLR9 (TLR9): synergistic effect | synergy with TLR2 ligand in IL-8 production / cytokine release [1]: significantly increased; also recorded: synergize | synergistic effect to augment cellular response (IL-8 production) for TLR4 (TLR4): synergistic effect | synergistic effect to augment cellular response (IL-8 production) for NOD1 (NOD1): synergistic effect | synergistic effect to augment cellular response (IL-8 production) for TLR2 (TLR2): synergistic effect

C/C=C(/C)C(=O)O[C@H]1C(C)=C2[C@H]([C@@H]1OC(=O)CCCCCCC)[C@@](C)(OC(C)=O)C[C@H](OC(=O)CCC)[C@@]1(O)[C@H]2OC(=O)[C@@]1(C)O [thapsigargin]
synergistic effect to augment cellular response (IL-8 production) for TLR5 (TLR5): synergistic effect | recognition of S. aureus conditioned/spent media (activation of κB-LUC THP-1 cells) (κB-LUC THP-1 cells): significantly enhanced | synergistic effect to augment cellular response (IL-8 production) for NOD2 (NOD2): synergistic effect | synergistic effect to augment cellular response (IL-8 production) for TLR9 (TLR9): synergistic effect | synergy with TLR2 ligand in IL-8 production / cytokine release [1]: synergize | synergistic effect to augment cellular response (IL-8 production) for TLR4 (TLR4): synergistic effect | synergistic effect to augment cellular response (IL-8 production) for NOD1 (NOD1): synergistic effect | amount of luciferase produced (NF-κB-driven), synergy with TLR2 ligand (KB-LUC THP-1 cells): significantly increased | synergistic effect to augment cellular response (IL-8 production) for TLR2 (TLR2): synergistic effect
